# According to patent US20240182531A1, “KV1.3 Blockers” (priority 2021, published 2024):
# Where a SMILES comes first, the peptide text is derived from it. Bridges are numbered along the chain shown (N, C = ends). [ ]: non-standard residue; d: D form. Nle = CCCC[C@H](N)C(=O)O; Dab = NCC[C@H](N)C(=O)O; Dap = NC[C@H](N)C(=O)O
# How the values were obtained:
# [1] = target: T1, human Kv1.3 voltage-gated K+ channel (Homo sapiens, UniProt P22001); test: Kv1.3 blocker activity in FLIPR thallium assay; assay type: cell-based
# T1 construct: host or cells: CHO-DUKX
# Description: A human Kv1.3 voltage-gated K+ channel cell line was purchased from Perkin Elmer (#TDS-AX-010-C-1). The cell line is based on CHO-DUKX cells stably transfected with the human Kv1.3 voltage-gated K+ channel.
# The cell line was grown in MEMα with nucleotides, GlutaMAX (Gibco #32571028), 10% Foetal Bovine Serum (FBS), 0.4 mg/ml Geneticin, 100 units/ml Penicillin, and 100 μg/ml Streptomycin and seeded at 10.000 cells/well in black poly-D-lysine-coated 96 well plates.
# The FluxOR™ Potassium Ion Channel Assay (Invitrogen #F10016) was used to quantitate flux of thallium ions into the cells as a response to Kv1.3 activation with a stimulus buffer causes depolarization of the cell membrane, thereby generating a fluorescent signal, proportional to channel activity. The assay was performed as described by the assay kit manufacturer including a compound pre-incubation step (30 min, 37° C., 5% CO2) in assay buffer containing 0.02% W/v casein from bovine milk (Sigma #C4765) prior to cell membrane depolarization using a final stimuli buffer composition corresponding to 0.2× FluxOR™ chloride-free buffer, 5 mM K2SO4, 1 mM Tl2SO4. The fluorescence responses were recorded and quantified (maximum response at 50 s, 37° C.) using the FLIPR® Tetra High Throughput Screening System (Molecular Devices, Inc.).
# IC50 can be regarded as a measure of potency of inhibition for the respective compound. The IC50 value is a measure of the concentration of an inhibitor required to achieve half of that compound's maximal inhibition of ion channel activity in a given assay.
# human Kv1.6 = target: T2, human Kv1.6 (Homo sapiens, UniProt P17658); test: cell-based; details: ratio of patch clamp IC50 values
# T2 construct: expressed in transfected cells; host or cells: CHO
# Rat whole blood = Rat whole blood (Rattus norvegicus, UniProt P15384); assay type: cell-based; details: IL-17A release, thapsigargin, 24 Hr, at least 2 replicates
# [2] = system: KLH ear inflammation model in rats; assay type: in vivo, rat; details: 100 nmol/kg SC 24 hrs prior to KLH ear challenge; +/− SD
# human Kv1.1 = target: T3, human Kv1.1 (Homo sapiens, UniProt Q09470); test: cell-based; details: ratio of patch clamp IC50 values
# T3 construct: expressed in transfected cells; host or cells: CHO
# human Kv1.2 = target: T4, human Kv1.2 (Homo sapiens, UniProt P16389); test: cell-based; details: ratio of patch clamp IC50 values
# T4 construct: expressed in transfected cells; host or cells: CHO
# T4 sequence (P16389 whole entry): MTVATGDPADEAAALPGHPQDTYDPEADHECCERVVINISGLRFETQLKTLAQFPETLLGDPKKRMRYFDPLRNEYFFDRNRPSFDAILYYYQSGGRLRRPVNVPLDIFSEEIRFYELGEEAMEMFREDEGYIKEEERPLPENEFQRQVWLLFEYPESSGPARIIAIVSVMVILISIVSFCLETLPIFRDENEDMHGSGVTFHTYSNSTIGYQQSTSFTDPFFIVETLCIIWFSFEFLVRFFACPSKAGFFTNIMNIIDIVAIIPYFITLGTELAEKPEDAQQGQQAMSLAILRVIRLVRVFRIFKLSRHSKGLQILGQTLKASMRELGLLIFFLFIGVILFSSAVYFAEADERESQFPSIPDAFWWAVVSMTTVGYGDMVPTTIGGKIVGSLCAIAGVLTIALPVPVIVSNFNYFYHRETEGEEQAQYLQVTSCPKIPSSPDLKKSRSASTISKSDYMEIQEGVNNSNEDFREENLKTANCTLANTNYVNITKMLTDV
# T1 sequence (P22001 whole entry): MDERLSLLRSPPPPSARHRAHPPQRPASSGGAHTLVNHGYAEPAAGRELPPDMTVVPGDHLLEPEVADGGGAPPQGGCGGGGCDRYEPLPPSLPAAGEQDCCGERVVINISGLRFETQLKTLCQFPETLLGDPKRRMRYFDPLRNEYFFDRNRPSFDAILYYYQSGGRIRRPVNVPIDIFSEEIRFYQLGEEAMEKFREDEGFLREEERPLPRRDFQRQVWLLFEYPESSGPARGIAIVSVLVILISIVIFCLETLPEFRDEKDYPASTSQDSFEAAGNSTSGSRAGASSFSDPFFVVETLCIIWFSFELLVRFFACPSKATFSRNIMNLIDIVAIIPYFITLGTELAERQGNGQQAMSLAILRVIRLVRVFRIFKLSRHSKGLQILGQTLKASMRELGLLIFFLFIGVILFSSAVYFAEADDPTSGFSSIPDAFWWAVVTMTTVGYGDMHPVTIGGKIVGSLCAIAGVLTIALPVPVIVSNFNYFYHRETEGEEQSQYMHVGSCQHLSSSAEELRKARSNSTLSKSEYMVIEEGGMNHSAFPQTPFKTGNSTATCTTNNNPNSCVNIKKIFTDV
# T3 sequence (Q09470 whole entry): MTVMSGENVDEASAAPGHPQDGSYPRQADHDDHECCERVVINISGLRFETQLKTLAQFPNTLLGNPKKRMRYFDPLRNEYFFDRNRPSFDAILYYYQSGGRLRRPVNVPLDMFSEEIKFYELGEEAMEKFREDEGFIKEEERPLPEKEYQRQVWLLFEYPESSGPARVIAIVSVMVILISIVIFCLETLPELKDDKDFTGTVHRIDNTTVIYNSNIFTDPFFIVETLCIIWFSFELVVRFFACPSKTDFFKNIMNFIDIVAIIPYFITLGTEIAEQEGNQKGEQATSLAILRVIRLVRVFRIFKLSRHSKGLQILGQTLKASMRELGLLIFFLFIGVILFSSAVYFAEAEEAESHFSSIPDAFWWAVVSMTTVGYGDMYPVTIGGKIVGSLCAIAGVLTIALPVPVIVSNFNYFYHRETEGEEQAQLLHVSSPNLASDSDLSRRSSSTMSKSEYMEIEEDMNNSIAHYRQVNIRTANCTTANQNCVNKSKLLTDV
# T2 sequence (P17658 whole entry): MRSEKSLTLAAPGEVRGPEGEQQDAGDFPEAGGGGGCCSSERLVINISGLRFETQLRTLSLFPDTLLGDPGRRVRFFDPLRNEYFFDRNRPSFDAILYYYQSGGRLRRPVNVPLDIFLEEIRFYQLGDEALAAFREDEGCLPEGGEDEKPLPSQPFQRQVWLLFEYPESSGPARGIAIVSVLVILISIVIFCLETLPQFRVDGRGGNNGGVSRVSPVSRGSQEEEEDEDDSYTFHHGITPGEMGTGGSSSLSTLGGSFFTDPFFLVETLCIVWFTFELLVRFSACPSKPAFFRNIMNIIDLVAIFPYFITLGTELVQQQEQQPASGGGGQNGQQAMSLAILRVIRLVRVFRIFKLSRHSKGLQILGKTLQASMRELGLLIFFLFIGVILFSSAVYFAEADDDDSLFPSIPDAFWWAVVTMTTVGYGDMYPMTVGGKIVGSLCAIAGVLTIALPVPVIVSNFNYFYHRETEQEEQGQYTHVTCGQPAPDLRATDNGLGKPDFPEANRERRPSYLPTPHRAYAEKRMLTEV
# Rat whole blood, sequence (P15384 whole entry): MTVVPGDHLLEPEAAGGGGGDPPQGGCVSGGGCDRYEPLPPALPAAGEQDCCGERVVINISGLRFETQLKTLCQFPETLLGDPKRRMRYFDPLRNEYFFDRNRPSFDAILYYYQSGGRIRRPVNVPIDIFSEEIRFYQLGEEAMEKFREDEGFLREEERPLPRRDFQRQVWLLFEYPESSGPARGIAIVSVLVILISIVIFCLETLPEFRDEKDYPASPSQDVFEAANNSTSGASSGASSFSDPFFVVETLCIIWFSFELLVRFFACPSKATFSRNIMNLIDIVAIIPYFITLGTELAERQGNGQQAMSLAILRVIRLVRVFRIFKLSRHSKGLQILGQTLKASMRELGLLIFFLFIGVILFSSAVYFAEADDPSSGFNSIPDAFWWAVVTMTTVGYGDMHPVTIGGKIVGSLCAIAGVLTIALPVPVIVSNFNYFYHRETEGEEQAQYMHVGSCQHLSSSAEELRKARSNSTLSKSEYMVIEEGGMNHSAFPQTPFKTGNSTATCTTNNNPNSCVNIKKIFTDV
SMILES,IC50 [1] [nM],further results
"CCCC[C@H](NC(=O)[C@@H]1CCCN1)C(=O)N[C@@H](CCC(=O)O)C(=O)N[C@@H](CCCC)C(=O)N[C@@H](CCCNC(=N)N)C(=O)N[C@H]1CSSC[C@@H]2NC(=O)[C@H](CCCCN)NC(=O)CNC(=O)[C@H](Cc3ccccc3)NC(=O)[C@H]([C@@H](C)CC)NC(=O)[C@H](CO)NC(=O)CNC(=O)[C@H]([C@@H](C)CC)NC(=O)[C@H](C)NC(=O)[C@H](C)NC(=O)[C@H](CC(C)C)NC(=O)[C@@H]3CSSC[C@@H](C(=O)N[C@@H](Cc4ccc(O)cc4)C(=O)N4CCC[C@H]4C(=O)N[C@@H](CCCNC(=N)N)C(=O)O)NC(=O)[C@H](CCCCN)NC(=O)[C@H](CSSC[C@H](NC(=O)[C@H](CCC(=O)O)NC(=O)[C@H](C(C)C)NC(=O)[C@H](CO)NC(=O)[C@H](C)NC(=O)[C@H](CN)NC1=O)C(=O)N[C@@H](CCCCN)C(=O)N[C@@H](CCC(N)=O)C(=O)N[C@@H](CCCCN)C(=O)N3)NC(=O)[C@H](CCCCN)NC(=O)[C@H](CCCCN)NC(=O)[C@H](CC(N)=O)NC(=O)[C@H](CCCC)NC2=O [compound 7] (H-P[Nle]E[Nle]RC[Dap]ASVECKQKCLAAIGSIFGKC[Nle]NKKCKCYPR-OH; disulfide 6-27, 12-32, 16-34)",0.28,–
"CCCC[C@H](NC(=O)[C@@H]1CCCN1)C(=O)N[C@@H](CCC(=O)O)C(=O)N[C@@H](CCCC)C(=O)N[C@@H](CCCNC(=N)N)C(=O)N[C@H]1CSSC[C@@H]2NC(=O)[C@H](CCCCN)NC(=O)CNC(=O)[C@H](Cc3ccccc3)NC(=O)[C@H]([C@@H](C)CC)NC(=O)[C@H](CO)NC(=O)CNC(=O)[C@H]([C@@H](C)CC)NC(=O)[C@H](C)NC(=O)[C@H](C)NC(=O)[C@H](CC(C)C)NC(=O)[C@@H]3CSSC[C@@H](C(=O)N[C@@H](Cc4ccc(O)cc4)C(=O)N4CCC[C@H]4C(=O)N[C@@H](CCCNC(=N)N)C(=O)O)NC(=O)[C@H](CCCCN)NC(=O)[C@H](CSSC[C@H](NC(=O)[C@H](CCC(=O)O)NC(=O)[C@H](C(C)C)NC(=O)[C@H](CN)NC(=O)[C@H](C)NC(=O)[C@H](CO)NC1=O)C(=O)N[C@@H](CCCCN)C(=O)N[C@@H](CCC(N)=O)C(=O)N[C@@H](CCCCN)C(=O)N3)NC(=O)[C@H](CCCCN)NC(=O)[C@H](CCCCN)NC(=O)[C@H](CC(N)=O)NC(=O)[C@H](CCCC)NC2=O [compound 8] (H-P[Nle]E[Nle]RCSA[Dap]VECKQKCLAAIGSIFGKC[Nle]NKKCKCYPR-OH; disulfide 6-27, 12-32, 16-34)",0.26,–
"CCCC[C@H](NC(=O)[C@@H]1CCCN1)C(=O)N[C@@H](CCC(=O)O)C(=O)N[C@@H](CCCC)C(=O)N[C@@H](CCCNC(=N)N)C(=O)N[C@H]1CSSC[C@@H]2NC(=O)[C@H](CCCCN)NC(=O)CNC(=O)[C@H](Cc3ccccc3)NC(=O)[C@H]([C@@H](C)CC)NC(=O)[C@H](CO)NC(=O)CNC(=O)[C@H]([C@@H](C)CC)NC(=O)[C@H](C)NC(=O)[C@H](C)NC(=O)[C@H](CC(C)C)NC(=O)[C@@H]3CSSC[C@@H](C(=O)N[C@@H](Cc4ccc(O)cc4)C(=O)N4CCC[C@H]4C(=O)N[C@@H](CCCNC(=N)N)C(=O)O)NC(=O)[C@H](CCCCN)NC(=O)[C@H](CSSC[C@H](NC(=O)[C@H](CCC(=O)O)NC(=O)[C@H](C(C)C)NC(=O)[C@H](CO)NC(=O)[C@H](C)NC(=O)[C@H](CCN)NC1=O)C(=O)N[C@@H](C)C(=O)N[C@@H](CCC(N)=O)C(=O)N[C@@H](CO)C(=O)N3)NC(=O)[C@H](CCCCN)NC(=O)CNC(=O)[C@H](CC(N)=O)NC(=O)[C@H](CCCC)NC2=O [compound 9] (H-P[Nle]E[Nle]RC[Dab]ASVECAQSCLAAIGSIFGKC[Nle]NGKCKCYPR-OH; disulfide 6-27, 12-32, 16-34)",4.6,–
"CCCC[C@H](NC(=O)[C@@H]1CCCN1)C(=O)N[C@@H](CCC(=O)O)C(=O)N[C@@H](CCCC)C(=O)N[C@@H](CCCNC(=N)N)C(=O)N[C@H]1CSSC[C@@H]2NC(=O)[C@H](CCCCN)NC(=O)CNC(=O)[C@H](Cc3ccccc3)NC(=O)[C@H]([C@@H](C)CC)NC(=O)[C@H](CO)NC(=O)CNC(=O)[C@H]([C@@H](C)CC)NC(=O)[C@H](C)NC(=O)[C@H](C)NC(=O)[C@H](CC(C)C)NC(=O)[C@@H]3CSSC[C@@H](C(=O)N[C@@H](Cc4ccc(O)cc4)C(=O)N4CCC[C@H]4C(=O)N[C@@H](CCCNC(=N)N)C(N)=O)NC(=O)[C@H](CCCCN)NC(=O)[C@H](CSSC[C@H](NC(=O)[C@H](CCC(=O)O)NC(=O)[C@H](C(C)C)NC(=O)[C@H](CO)NC(=O)[C@H](C)NC(=O)[C@H](CCN)NC1=O)C(=O)N[C@@H](C)C(=O)N[C@@H](CCC(N)=O)C(=O)N[C@@H](CO)C(=O)N3)NC(=O)[C@H](CCCCN)NC(=O)CNC(=O)[C@H](CC(N)=O)NC(=O)[C@H](CCCC)NC2=O [compound 10] (H-P[Nle]E[Nle]RC[Dab]ASVECAQSCLAAIGSIFGKC[Nle]NGKCKCYPR-NH2; disulfide 6-27, 12-32, 16-34)",0.33,–
"CCCC[C@H](NC(=O)[C@@H]1CCCN1)C(=O)N[C@@H](CCC(=O)O)C(=O)N[C@@H](CCCC)C(=O)N[C@@H](CCCNC(=N)N)C(=O)N[C@H]1CSSC[C@@H]2NC(=O)[C@H](CCCCN)NC(=O)CNC(=O)[C@H](Cc3ccccc3)NC(=O)[C@H]([C@@H](C)CC)NC(=O)[C@H](CO)NC(=O)CNC(=O)[C@H]([C@@H](C)CC)NC(=O)[C@H](C)NC(=O)[C@H](C)NC(=O)[C@H](CC(C)C)NC(=O)[C@@H]3CSSC[C@@H](C(=O)N[C@@H](Cc4ccc(O)cc4)C(=O)N4CCC[C@H]4C(=O)N[C@@H](CCCNC(=N)N)C(N)=O)NC(=O)[C@H](CCCCN)NC(=O)[C@H](CSSC[C@H](NC(=O)[C@H](CCC(=O)O)NC(=O)[C@H](C(C)C)NC(=O)[C@H](CO)NC(=O)[C@H](C)NC(=O)[C@H](CCCNC(=N)N)NC1=O)C(=O)N[C@@H](C)C(=O)N[C@@H](CCC(N)=O)C(=O)N[C@@H](CO)C(=O)N3)NC(=O)[C@H](CCCCN)NC(=O)CNC(=O)[C@H](CC(N)=O)NC(=O)[C@H](CCCC)NC2=O [compound 11] (H-P[Nle]E[Nle]RCRASVECAQSCLAAIGSIFGKC[Nle]NGKCKCYPR-NH2; disulfide 6-27, 12-32, 16-34)",0.22,–
"CCCC[C@H](NC(=O)[C@@H]1CCCN1)C(=O)N[C@@H](CCC(=O)O)C(=O)N[C@@H](CCCC)C(=O)N[C@@H](CCCNC(=N)N)C(=O)N[C@H]1CSSC[C@@H]2NC(=O)[C@H](CCCCN)NC(=O)CNC(=O)[C@H](Cc3ccccc3)NC(=O)[C@H]([C@@H](C)CC)NC(=O)[C@H](CO)NC(=O)CNC(=O)[C@H]([C@@H](C)CC)NC(=O)[C@H](C)NC(=O)[C@H](C)NC(=O)[C@H](CC(C)C)NC(=O)[C@@H]3CSSC[C@@H](C(=O)N[C@@H](Cc4ccc(O)cc4)C(=O)N4CCC[C@H]4C(=O)N[C@@H](CCCNC(=N)N)C(N)=O)NC(=O)[C@H](CCCCN)NC(=O)[C@H](CSSC[C@H](NC(=O)[C@H](CCC(=O)O)NC(=O)[C@H](CCCNC(=N)N)NC(=O)[C@H](CO)NC(=O)[C@H](C)NC(=O)[C@H](CO)NC1=O)C(=O)N[C@@H](C)C(=O)N[C@@H](CCC(N)=O)C(=O)N[C@@H](CO)C(=O)N3)NC(=O)[C@H](CCCCN)NC(=O)CNC(=O)[C@H](CC(N)=O)NC(=O)[C@H](CCCC)NC2=O [compound 12] (H-P[Nle]E[Nle]RCSASRECAQSCLAAIGSIFGKC[Nle]NGKCKCYPR-NH2; disulfide 6-27, 12-32, 16-34)",0.45,–
"CC[C@H](C)[C@@H]1NC(=O)[C@H](C)NC(=O)[C@H](C)NC(=O)[C@H](CC(C)C)NC(=O)[C@@H]2CSSC[C@@H](C(=O)N[C@@H](Cc3ccc(O)cc3)C(=O)N3CCC[C@H]3C(=O)N[C@@H](CCCNC(=N)N)C(N)=O)NC(=O)[C@H](CCCCN)NC(=O)[C@@H]3CSSC[C@H](NC(=O)[C@H](CCC(=O)O)NC(=O)[C@H](C(C)C)NC(=O)[C@H](CO)NC(=O)[C@H](C)NC(=O)[C@H](CO)NC(=O)[C@@H](NC(=O)[C@H](CCCNC(=N)N)NC(=O)[C@H](CCSC)NC(=O)[C@H](CC(=O)O)NC(=O)[C@H](CCSC)NC(=O)[C@@H](N)CC(N)=O)CSSC[C@H](NC(=O)[C@H](CCCCN)NC(=O)CNC(=O)[C@H](Cc4ccccc4)NC(=O)[C@H]([C@@H](C)CC)NC(=O)[C@H](CO)NC(=O)CNC1=O)C(=O)N[C@@H](CCSC)C(=O)N[C@@H](CC(N)=O)C(=O)N[C@@H](CCCCN)C(=O)N[C@@H](CCCCN)C(=O)N3)C(=O)N[C@@H](CCCCN)C(=O)N[C@@H](CCC(N)=O)C(=O)N[C@@H](CCCCN)C(=O)N2 [compound 56] (H-NMDMRCSASVECKQKCLAAIGSIFGKCMNKKCKCYPR-NH2; disulfide 6-27, 12-32, 16-34)",–,Selectivity ratio Kv1.6/Kv1.3 (human Kv1.6): >27500; IC50 (Rat whole blood): 0.69 nM; % inhibition of ear thickness (AUC of Δ ear thickness 0-48 hours) [2]: 25.1 (+/−6.3) %; Selectivity ratio Kv1.1/Kv1.3 (human Kv1.1): >27500; Selectivity ratio Kv1.2/Kv1.3 (human Kv1.2): 803
